Patent US8871796B2, “Diaryl ether derivatives as notch sparing gamma secretase inhibitors” (Merck Sharp & Dohme Corp., priority 2009, dated 2014)
Where two headings read alike, the source gives them in different places.

Test: APP processing: AlphaLisa assay of secreted Aβ40 and Aβ42 from SP4CT cells
Type: cell-based
Conditions: Homo sapiens, SH-SY5Y cells expressing amyloid β protein (SP4CT cells)
Method in brief: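 Media from compound-treated SP4CT cells (SH-SY5Y expressing amyloid β protein) was assayed by AlphaLisa. Donor beads carried biotinylated 4G8 anti-Aβ antibody; acceptor beads carried G210 (Aβ40) or 12F4 (Aβ42) in separate plates, with luminescence proportional to peptide abundance.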

[1] = read-out: IC50, inhibition of production of Aβ40 peptide
[2] = read-out: IC50, inhibition of production of Aβ42 peptide

IC50 [1]	IC50 [2]	SMILES
< 0.2 µM	< 0.2 µM	CCn1nc(-c2cccc(C(C)(C)NS(=O)(=O)CC(F)(F)F)c2)cc1Oc1ccc(CNc2nccs2)cc1 [Example 86, N-{1-[3-(1-ethyl-5-{4-[(1,3-thiazol-2-ylamino)methyl]phenoxy}-1H-pyrazol-3-yl)phenyl]-1-methylethyl}-2,2,2-trifluoroethanesulfonamide]
< 0.2 µM	< 0.2 µM	CCn1nc(-c2cccc(C(C)(C)NS(=O)(=O)CC(F)(F)F)c2)cc1Oc1ccc(CN2CCC3(CC2)OCCO3)cc1 [Example 87, N-[1-(3-{5-[4-(1,4-dioxa-8-azaspiro[4.5]dec-8-ylmethyl)phenoxy]-1-ethyl-1H-pyrazol-3-yl}phenyl)-1-methylethyl]-2,2,2-trifluoroethanesulfonamide]
< 0.2 µM	< 0.2 µM	CCn1nc(-c2cccc(C(C)(C)NS(=O)(=O)CC(F)(F)F)c2)cc1Oc1ccc(CNCc2cccs2)cc1 [Example 88, N-(1-{3-[1-ethyl-5-(4-{[(2-thienylmethyl)amino]methyl}phenoxy)-1H-pyrazol-3-yl]phenyl}-1-methylethyl)-2,2,2-trifluoroethanesulfonamide]
< 0.2 µM	< 0.2 µM	CCn1nc(-c2cccc(C(C)(C)NS(=O)(=O)CC(F)(F)F)c2)cc1Oc1ccc(CNCc2ccncc2)cc1 [Example 89, N-(1-{3-[1-ethyl-5-(4-{[(pyridin-4-ylmethyl)amino]methyl}phenoxy)-1H-pyrazol-3-yl]phenyl}-1-methylethyl)-2,2,2-trifluoroethanesulfonamide]
< 0.2 µM	< 0.2 µM	CCn1nc(-c2cccc(C(C)(C)NS(=O)(=O)CC(F)(F)F)c2)cc1Oc1ccc(CNCC2(C)CCCO2)cc1 (stereo not drawn) [Example 90, N-[1-(3-{1-ethyl-5-[4-({[(2-methyltetrahydrofuran-2-yl)methyl]amino}methyl)phenoxy]-1H-pyrazol-3-yl}phenyl)-1-methylethyl]-2,2,2-trifluoroethanesulfonamide]
< 0.2 µM	< 0.2 µM	CCn1nc(-c2cccc(C(C)(C)NS(=O)(=O)CC(F)(F)F)c2)cc1Oc1ccc(CNCC2CCOCC2)cc1 [Example 91, N-(1-{3-[1-ethyl-5-(4-{[(tetrahydro-2H-pyran-4-ylmethyl)amino]methyl}phenoxy)-1H-pyrazol-3-yl]phenyl}-1-methylethyl)-2,2,2-trifluoroethanesulfonamide]
< 0.2 µM	< 0.2 µM	CCn1nc(-c2cccc(C(C)(C)NS(=O)(=O)CC(F)(F)F)c2)cc1Oc1ccc(CNC2CCCOC2)cc1 (stereo not drawn) [Example 92, N-{1-[3-(1-ethyl-5-{4-[(tetrahydro-2H-pyran-3-ylamino)methyl]phenoxy}-1H-pyrazol-3-yl)phenyl]-1-methylethyl}-2,2,2-trifluoroethanesulfonamide]
< 0.2 µM	< 0.2 µM	CCn1nc(-c2cccc(C(C)(C)NS(=O)(=O)CC(F)(F)F)c2)cc1Oc1ccc(CN2CCN(C(C)=O)CC2)cc1 [Example 93, N-{1-[3-(5-{4-[(4-acetylpiperazin-1-yl)methyl]phenoxy}-1-ethyl-1H-pyrazol-3-yl)phenyl]-1-methylethyl}-2,2,2-trifluoroethanesulfonamide]
< 0.2 µM	< 0.2 µM	CCn1nc(-c2cccc(C(C)(C)NS(=O)(=O)CC(F)(F)F)c2)cc1Oc1ccc(CNCc2cccnc2)cc1 [Example 94, N-(1-{3-[1-ethyl-5-(4-{[(pyridin-3-ylmethyl)amino]methyl}phenoxy)-1H-pyrazol-3-yl]phenyl}-1-methylethyl)-2,2,2-trifluoroethanesulfonamide]
< 0.2 µM	< 0.2 µM	CCn1nc(-c2cccc(C3(NS(=O)(=O)CC(F)(F)F)COC3)c2)cc1Oc1ccc(C(F)(F)F)cc1 [Example 95, N-[3-(3-{1-ethyl-5-[4-(trifluoromethyl)phenoxy]-1H-pyrazol-3-yl}phenyl)oxetan-3-yl]-2,2,2-trifluoroethanesulfonamide]
< 0.2 µM	< 0.2 µM	CCn1nc(-c2cccc(C3(NS(=O)(=O)NC)COC3)c2)cc1Oc1ccc(C(F)(F)F)cc1 [Example 97, N-[3-(3-{1-ethyl-5-[4-(trifluoromethyl)phenoxy]-1H-pyrazol-3-yl}phenyl)oxetan-3-yl]-N′-methylsulfamide]
< 0.2 µM	< 0.2 µM	CCn1nc(-c2cccc(C3(NS(=O)(=O)NC4CCC(F)(F)C4)COC3)c2)cc1Oc1ccc(C(F)(F)F)cc1 (stereo not drawn) [Example 99]
< 0.2 µM	< 0.2 µM	CCn1nc(Oc2ccc(C(F)(F)F)cc2)cc1-c1cccc(C2(NS(=O)(=O)NCC(F)(F)F)COC2)c1 [Example 101, N-[3-(3-{1-ethyl-3-[4-(trifluoromethyl)phenoxy]-1H-pyrazol-5-yl}phenyl)oxetan-3-yl]-N′-(2,2,2-trifluoroethyl)sulfamide]
< 0.2 µM	< 0.2 µM	CCn1nc(Oc2ccc(C(F)(F)F)cc2)cc1-c1cccc(C2(NS(=O)(=O)NCCC(F)(F)F)COC2)c1 [Example 102]
< 0.2 µM	< 0.2 µM	CCn1nc(Oc2ccc(C(F)(F)F)cc2)cc1-c1cccc(C2(NS(=O)(=O)NCC3CCC3)COC2)c1 [Example 103]
< 0.2 µM	< 0.2 µM	CC(C)(NS(=O)(=O)CC(F)(F)F)c1cccc(-c2cc(Oc3ccc(C(F)(F)F)cc3)n(CCO)n2)c1 [Example 105, 2,2,2-trifluoro-N-[1-(3-{1-(2-hydroxyethyl)-5-[4-(trifluoromethyl)phenoxy]-1H-pyrazol-3-yl}phenyl)-1-methylethyl]ethanesulfonamide]
< 0.2 µM	< 0.2 µM	Cn1nc(-c2cccc(C3(NS(=O)(=O)CC(F)(F)F)CC3)c2)cc1Oc1ccc(C(F)(F)F)cc1 [Example 106, 2,2,2-trifluoro-N-[1-(3-{1-methyl-5-[4-(trifluoromethyl)phenoxy]-1H-pyrazol-3-yl}phenyl)cyclopropyl]ethanesulfonamide]
< 0.2 µM	< 0.2 µM	O=S(=O)(CC(F)(F)F)NC1(c2cccc(-c3cc(Oc4ccc(C(F)(F)F)cc4)n(CC(F)(F)F)n3)c2)CC1 [Example 107, 2,2,2-trifluoro-N-[1-(3-{1-(2,2,2-trifluoroethyl)-5-[4-(trifluoromethyl)phenoxy]-1H-pyrazol-3-yl}phenyl)cyclopropyl]ethanesulfonamide]
< 0.2 µM	< 0.2 µM	CCn1nc(-c2cccc(C(C)(C)NS(=O)(=O)CC(F)(F)F)c2)cc1Oc1ccc(C#N)cc1 [Example 108, N-(1-{3-[5-(4-cyanophenoxy)-1-ethyl-1H-pyrazol-3-yl]phenyl}-1-methylethyl)-2,2,2-trifluoroethanesulfonamide]
< 0.2 µM	< 0.2 µM	CCn1nc(-c2cccc(C3(NS(=O)(=O)CC(F)(F)F)CCC3)c2)cc1Oc1ccc(C(F)(F)F)cc1 [Example 109, N-[1-(3-{1-ethyl-5-[4-(trifluoromethyl)phenoxy]-1H-pyrazol-3-yl}phenyl)cyclobutyl]-2,2,2-trifluoroethanesulfonamide]
< 0.2 µM	< 0.2 µM	CCn1nc(-c2cccc(C3(NS(=O)(=O)CC(F)(F)F)CC3)c2)c(Cl)c1Oc1ccc(C(F)(F)F)cc1 [Example 111, N-[1-(3-{4-chloro-1-ethyl-5-[4-(trifluoromethyl)phenoxy]-1H-pyrazol-3-yl}phenyl)cyclopropyl]-2,2,2-trifluoroethanesulfonamide]
